Article PMC11942486, “The Impact of a Quinone Scaffold on Thermo-TRPs Modulation by Dimethylheptyl Phytocannabinoids” (International Journal of Molecular Sciences, 2025)
Like-named read-outs stand apart in the source and are kept apart here.

Columns and labels:
[1] = target: T1, rat TRPA1 (Rattus norvegicus, UniProt Q6RI86); design: method as in PMID 34440274; settings: cited from earlier work; for TRPA1 Efficacy (% AITC 100 μM): agonist effect as % of AITC 100 μM, HEK-293 rat TRPA1
T1 construct: expressed in transfected cells

[2] = target: T2, human TRPV1 (Homo sapiens, UniProt Q8NER1); design: method as in PMID 34440274
T2 construct: expressed in transfected cells

[3] = target: T3, rat TRPV4 (Rattus norvegicus, UniProt Q9ERZ8); design: method as in PMID 34440274
T3 construct: expressed in transfected cells

[4] = target: T4, rat TRPV2 (Rattus norvegicus, UniProt Q9WUD2); design: method as in PMID 34440274; settings: cited from earlier work; for TRPV2 Efficacy (% Ionomycin 4 μM): agonist effect as % of ionomycin 4 μM
T4 construct: expressed in transfected cells
T4 sequence (Q9WUD2 1-761): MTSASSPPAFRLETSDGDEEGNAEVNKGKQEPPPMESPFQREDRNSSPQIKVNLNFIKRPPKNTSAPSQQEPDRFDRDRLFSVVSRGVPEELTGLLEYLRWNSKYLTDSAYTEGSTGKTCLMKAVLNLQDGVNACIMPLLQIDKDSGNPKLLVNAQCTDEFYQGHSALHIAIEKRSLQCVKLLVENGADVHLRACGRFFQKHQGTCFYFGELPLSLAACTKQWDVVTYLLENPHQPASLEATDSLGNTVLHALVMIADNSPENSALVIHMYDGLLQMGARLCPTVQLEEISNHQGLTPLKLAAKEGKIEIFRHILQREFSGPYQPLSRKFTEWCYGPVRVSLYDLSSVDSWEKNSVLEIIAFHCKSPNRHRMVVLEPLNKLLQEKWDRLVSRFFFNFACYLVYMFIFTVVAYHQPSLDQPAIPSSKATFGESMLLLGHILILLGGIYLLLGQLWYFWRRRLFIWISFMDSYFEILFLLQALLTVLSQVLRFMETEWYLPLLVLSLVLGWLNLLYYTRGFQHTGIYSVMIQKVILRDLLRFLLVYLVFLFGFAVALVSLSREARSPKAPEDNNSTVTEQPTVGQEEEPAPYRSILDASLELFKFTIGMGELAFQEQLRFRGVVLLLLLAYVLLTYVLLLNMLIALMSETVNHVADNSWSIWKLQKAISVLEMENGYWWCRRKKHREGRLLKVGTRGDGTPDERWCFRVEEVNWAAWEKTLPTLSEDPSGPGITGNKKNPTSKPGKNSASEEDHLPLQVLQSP

[5] = target: T5, rat TRPV3 (Rattus norvegicus, UniProt Q4QYD9); design: method as in PMID 34440274
T5 construct: expressed in transfected cells
T5 sequence (Q4QYD9 1-791): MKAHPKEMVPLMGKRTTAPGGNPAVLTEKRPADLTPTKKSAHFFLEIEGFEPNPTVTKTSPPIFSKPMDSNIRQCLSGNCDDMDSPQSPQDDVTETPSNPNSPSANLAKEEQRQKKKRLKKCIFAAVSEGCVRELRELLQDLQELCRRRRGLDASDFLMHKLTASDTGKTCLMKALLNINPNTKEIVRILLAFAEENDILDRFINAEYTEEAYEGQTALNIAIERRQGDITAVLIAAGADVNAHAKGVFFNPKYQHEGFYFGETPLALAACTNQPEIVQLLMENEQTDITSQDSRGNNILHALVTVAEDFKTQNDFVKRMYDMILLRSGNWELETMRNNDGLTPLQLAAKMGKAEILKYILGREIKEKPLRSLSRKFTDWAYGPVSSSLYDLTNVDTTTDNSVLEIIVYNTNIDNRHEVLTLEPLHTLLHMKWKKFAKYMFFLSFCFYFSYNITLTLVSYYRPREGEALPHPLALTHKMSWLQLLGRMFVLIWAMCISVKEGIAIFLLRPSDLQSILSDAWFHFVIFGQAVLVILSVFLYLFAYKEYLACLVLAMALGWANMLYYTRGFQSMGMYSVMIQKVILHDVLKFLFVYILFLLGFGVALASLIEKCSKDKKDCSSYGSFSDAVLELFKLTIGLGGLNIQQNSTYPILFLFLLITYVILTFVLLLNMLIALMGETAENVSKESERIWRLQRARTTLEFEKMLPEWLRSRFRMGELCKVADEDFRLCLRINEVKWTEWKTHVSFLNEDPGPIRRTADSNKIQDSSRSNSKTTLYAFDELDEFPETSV

[6] = target: T6, rat TRPM8 (Rattus norvegicus, UniProt Q8R455); design: method as in PMID 34440274; settings: vs Icilin 0.25 μM; 22 °C; cited from earlier work
T6 construct: expressed in transfected cells

[7] = target: T1, rat TRPA1; experiment: Thermo-TRP assay: [Ca2+]i elevation (Fluo-4) in HEK-293 cells transfected with TRPA1; assay type: cell-based
Description: (§1) The compounds were tested on HEK-293 cells either stably transfected with rat TRPA1, TRPV2, TRPV3, TRPV4, TRPM8 or human TRPV1 or not-transfected, by performing a continuous monitoring of the intracellular calcium ([Ca^2+]i) elevation during the experiments, following the protocol already described. […] Cell fluorescence before and after the addition of various concentrations of tested compounds was measured, normalizing the effects against the response to ionomycin (IM, 4 μM). The effect on [Ca^2+]i in non-transfected HEK-293 cells were used as the baseline and subtracted from the values obtained from the transfected ones. The efficacy of the agonists was determined by normalizing their effect to the maximum Ca^2+ influx effect on [Ca^2+]i observed with application of 4μM ionomycin. The effects of TRPA1 agonists are expressed as a percentage of the effect obtained with 100 μM allyl isothiocyanate (AITC). In the TRPV3 assay, rat TRPV3-expressing HEK-293 cells were first sensitized with the structurally unrelated agonist 2-aminoethoxydiphenyl borate (100 μM). For the TRPM8, the experiments were carried out at 22 °C. The potency (EC50 values) is determined as the concentration required to produce half-maximal increases in [Ca^2+]i. […] A dose-response curve fitting (sigmoidal dose-response variable slope) and parameter estimation were performed with Graph-Pad Prism 8 (GraphPad Software Inc., San Diego, CA, USA). All determinations were performed at least in triplicate.

[8] = target: T2, human TRPV1; experiment: Thermo-TRP assay: [Ca2+]i elevation (Fluo-4) in HEK-293 cells transfected with TRPV1; assay type: cell-based
Description: as §1

[9] = target: T3, rat TRPV4; experiment: Thermo-TRP assay: [Ca2+]i elevation (Fluo-4) in HEK-293 cells transfected with TRPV4; assay type: cell-based
Description: as §1

[10] = target: T6, rat TRPM8; experiment: Thermo-TRP assay: [Ca2+]i elevation (Fluo-4) in HEK-293 cells transfected with TRPM8; assay type: cell-based
Description: as §1

[11] = target: T4, rat TRPV2; experiment: Thermo-TRP assay: [Ca2+]i elevation (Fluo-4) in HEK-293 cells transfected with TRPV2; assay type: cell-based
Description: (§2) The compounds were tested on HEK-293 cells either stably transfected with rat TRPA1, TRPV2, TRPV3, TRPV4, TRPM8 or human TRPV1 or not-transfected, by performing a continuous monitoring of the intracellular calcium ([Ca^2+]i) elevation during the experiments, following the protocol already described. On the day of the experiment, the cells were loaded for 1 h in the dark at room temperature with the fluorescent probe Fluo-4 AM (4 μM in DMSO containing 0.02% Pluronic F-127). The cells were rinsed, resuspended in Tyrode’s solution (145 mM NaCl, 2.5 mM KCl, 1.5 mM CaCl2, 1.2 mM MgCl2, 10 mM D-glucose, and 10 mM HEPES, pH 7.4), and transferred to a quartz cuvette of a spectrofluorimeter (PerkinElmer LS50B; λEX = 488 nm, λEM = 516 nm) equipped with a PTP-1 fluorescence Peltier system (PerkinElmer Life and Analytical Sciences, Waltham, MA, USA) under continuous stirring. Cell fluorescence before and after the addition of various concentrations of tested compounds was measured, normalizing the effects against the response to ionomycin (IM, 4 μM). The effect on [Ca^2+]i in non-transfected HEK-293 cells were used as the baseline and subtracted from the values obtained from the transfected ones. The efficacy of the agonists was determined by normalizing their effect to the maximum Ca^2+ influx effect on [Ca^2+]i observed with application of 4μM ionomycin. The effects of TRPA1 agonists are expressed as a percentage of the effect obtained with 100 μM allyl isothiocyanate (AITC). In the TRPV3 assay, rat TRPV3-expressing HEK-293 cells were first sensitized with the structurally unrelated agonist 2-aminoethoxydiphenyl borate (100 μM). For the TRPM8, the experiments were carried out at 22 °C. The potency (EC50 values) is determined as the concentration required to produce half-maximal increases in [Ca^2+]i. Antagonist/desensitizing behavior is evaluated against the agonist of the TRP analyzed by adding the compounds directly in the quartz cuvette 5 min before stimulation of cells with the agonist (allylisothiocyanate (100 μM) for TRPA1, capsaicin (0.1 μM) for TRPV1, cannabidiol (2 μM) for TRPV2, thymol (100 μM) for TRPV3, GSK1016790A (10 nM) for TRPV4, and icilin (0.25 μM) for TRPM8). The IC50 value is expressed as the concentration exerting a half-maximal inhibition of the agonist effect, taking as 100% the effect on [Ca^2+]i exerted by the agonist alone. A dose-response curve fitting (sigmoidal dose-response variable slope) and parameter estimation were performed with Graph-Pad Prism 8 (GraphPad Software Inc., San Diego, CA, USA). All determinations were performed at least in triplicate.

[12] = target: T5, rat TRPV3; experiment: Thermo-TRP assay: [Ca2+]i elevation (Fluo-4) in HEK-293 cells transfected with TRPV3; assay type: cell-based
Description: as §2

[13] = vs Capsaicin 0.1 μM; read-out: IC50 TRPV1; cited from earlier work
[14] = vs GSK1016790A 10 nM; read-out: IC50 TRPV4; cited from earlier work
[15] = agonist effect as % of ionomycin 4 μM; cited from earlier work
[16] = antagonist/desensitizing, vs Thymol 100 μM; cited from earlier work
[17] = read-out: IC50 TRPV1; vs Capsaicin 0.1 μM; cited from earlier work
[18] = read-out: IC50 TRPV4; vs GSK1016790A 10 nM; cited from earlier work

T3 sequence (Q9ERZ8 whole entry): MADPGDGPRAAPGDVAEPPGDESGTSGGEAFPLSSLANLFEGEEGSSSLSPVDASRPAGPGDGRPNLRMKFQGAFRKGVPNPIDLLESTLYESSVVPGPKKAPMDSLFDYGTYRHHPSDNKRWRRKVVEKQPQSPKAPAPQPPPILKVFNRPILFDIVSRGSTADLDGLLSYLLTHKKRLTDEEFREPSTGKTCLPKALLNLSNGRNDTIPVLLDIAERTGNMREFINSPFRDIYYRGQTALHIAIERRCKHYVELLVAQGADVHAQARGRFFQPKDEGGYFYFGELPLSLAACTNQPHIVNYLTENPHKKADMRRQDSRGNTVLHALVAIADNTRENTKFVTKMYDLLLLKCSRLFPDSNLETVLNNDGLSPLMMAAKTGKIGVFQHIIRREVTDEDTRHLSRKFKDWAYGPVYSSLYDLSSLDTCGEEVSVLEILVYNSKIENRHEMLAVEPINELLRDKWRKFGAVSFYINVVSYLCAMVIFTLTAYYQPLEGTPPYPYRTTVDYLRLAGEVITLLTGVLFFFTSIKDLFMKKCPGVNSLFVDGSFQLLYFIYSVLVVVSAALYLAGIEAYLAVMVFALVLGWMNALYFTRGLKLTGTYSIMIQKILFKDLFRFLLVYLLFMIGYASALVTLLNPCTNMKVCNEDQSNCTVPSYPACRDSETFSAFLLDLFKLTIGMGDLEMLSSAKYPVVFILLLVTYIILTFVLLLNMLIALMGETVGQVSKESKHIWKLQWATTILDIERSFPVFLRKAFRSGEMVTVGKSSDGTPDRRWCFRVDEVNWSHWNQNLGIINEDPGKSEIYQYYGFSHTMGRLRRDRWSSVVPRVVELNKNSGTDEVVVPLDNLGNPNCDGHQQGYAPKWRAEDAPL
T1 sequence (Q6RI86 whole entry): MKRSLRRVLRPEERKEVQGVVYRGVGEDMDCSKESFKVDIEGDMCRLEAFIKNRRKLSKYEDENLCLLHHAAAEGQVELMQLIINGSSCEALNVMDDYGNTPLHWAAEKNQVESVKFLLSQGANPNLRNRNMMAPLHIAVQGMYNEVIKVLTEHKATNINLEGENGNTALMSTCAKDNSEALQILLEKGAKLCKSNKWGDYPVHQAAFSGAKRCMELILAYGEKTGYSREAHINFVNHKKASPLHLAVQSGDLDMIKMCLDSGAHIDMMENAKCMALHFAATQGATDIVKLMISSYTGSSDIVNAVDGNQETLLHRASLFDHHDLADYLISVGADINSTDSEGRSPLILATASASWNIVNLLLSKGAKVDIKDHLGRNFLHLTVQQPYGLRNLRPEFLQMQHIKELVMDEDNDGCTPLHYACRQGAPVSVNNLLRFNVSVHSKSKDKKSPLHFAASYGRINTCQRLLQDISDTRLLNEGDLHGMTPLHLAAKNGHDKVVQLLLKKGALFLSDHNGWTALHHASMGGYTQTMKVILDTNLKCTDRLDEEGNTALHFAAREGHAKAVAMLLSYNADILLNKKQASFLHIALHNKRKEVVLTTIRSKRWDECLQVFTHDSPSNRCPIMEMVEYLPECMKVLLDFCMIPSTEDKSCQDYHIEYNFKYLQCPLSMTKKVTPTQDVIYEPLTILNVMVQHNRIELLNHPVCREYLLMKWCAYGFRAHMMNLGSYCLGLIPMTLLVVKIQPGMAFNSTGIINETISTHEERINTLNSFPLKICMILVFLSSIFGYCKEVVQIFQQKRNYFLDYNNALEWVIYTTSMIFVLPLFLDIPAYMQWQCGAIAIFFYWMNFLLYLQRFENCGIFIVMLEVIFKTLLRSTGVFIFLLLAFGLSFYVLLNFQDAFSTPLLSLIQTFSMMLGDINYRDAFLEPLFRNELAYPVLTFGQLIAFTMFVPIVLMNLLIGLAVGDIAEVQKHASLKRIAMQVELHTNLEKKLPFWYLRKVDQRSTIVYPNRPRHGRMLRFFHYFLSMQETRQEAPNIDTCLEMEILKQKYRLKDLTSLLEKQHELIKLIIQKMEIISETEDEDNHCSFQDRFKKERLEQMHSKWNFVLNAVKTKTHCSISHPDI
T2 sequence (Q8NER1 whole entry): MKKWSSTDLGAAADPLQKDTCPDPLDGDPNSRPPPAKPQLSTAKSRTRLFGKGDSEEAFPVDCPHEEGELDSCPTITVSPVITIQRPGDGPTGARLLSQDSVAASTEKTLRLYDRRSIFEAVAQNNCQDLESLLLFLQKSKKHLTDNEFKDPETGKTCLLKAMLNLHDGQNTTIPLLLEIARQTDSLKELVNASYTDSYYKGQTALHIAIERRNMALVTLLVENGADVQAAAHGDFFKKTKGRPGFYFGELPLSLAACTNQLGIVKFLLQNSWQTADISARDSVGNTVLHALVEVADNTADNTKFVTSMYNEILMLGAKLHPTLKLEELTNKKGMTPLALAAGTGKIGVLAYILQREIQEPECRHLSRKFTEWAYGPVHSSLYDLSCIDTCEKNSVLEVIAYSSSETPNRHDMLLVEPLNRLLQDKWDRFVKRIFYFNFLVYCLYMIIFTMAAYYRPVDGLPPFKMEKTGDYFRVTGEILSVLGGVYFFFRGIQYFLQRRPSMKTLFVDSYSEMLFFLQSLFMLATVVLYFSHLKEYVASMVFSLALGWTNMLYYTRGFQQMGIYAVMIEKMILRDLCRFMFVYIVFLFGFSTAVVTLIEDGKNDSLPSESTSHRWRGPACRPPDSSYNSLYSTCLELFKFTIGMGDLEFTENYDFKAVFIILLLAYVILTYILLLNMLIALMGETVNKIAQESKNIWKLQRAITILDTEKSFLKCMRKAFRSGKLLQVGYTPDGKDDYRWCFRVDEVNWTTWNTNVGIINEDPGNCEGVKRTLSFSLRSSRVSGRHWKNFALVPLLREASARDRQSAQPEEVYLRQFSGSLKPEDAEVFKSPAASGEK
T6 sequence (Q8R455 whole entry): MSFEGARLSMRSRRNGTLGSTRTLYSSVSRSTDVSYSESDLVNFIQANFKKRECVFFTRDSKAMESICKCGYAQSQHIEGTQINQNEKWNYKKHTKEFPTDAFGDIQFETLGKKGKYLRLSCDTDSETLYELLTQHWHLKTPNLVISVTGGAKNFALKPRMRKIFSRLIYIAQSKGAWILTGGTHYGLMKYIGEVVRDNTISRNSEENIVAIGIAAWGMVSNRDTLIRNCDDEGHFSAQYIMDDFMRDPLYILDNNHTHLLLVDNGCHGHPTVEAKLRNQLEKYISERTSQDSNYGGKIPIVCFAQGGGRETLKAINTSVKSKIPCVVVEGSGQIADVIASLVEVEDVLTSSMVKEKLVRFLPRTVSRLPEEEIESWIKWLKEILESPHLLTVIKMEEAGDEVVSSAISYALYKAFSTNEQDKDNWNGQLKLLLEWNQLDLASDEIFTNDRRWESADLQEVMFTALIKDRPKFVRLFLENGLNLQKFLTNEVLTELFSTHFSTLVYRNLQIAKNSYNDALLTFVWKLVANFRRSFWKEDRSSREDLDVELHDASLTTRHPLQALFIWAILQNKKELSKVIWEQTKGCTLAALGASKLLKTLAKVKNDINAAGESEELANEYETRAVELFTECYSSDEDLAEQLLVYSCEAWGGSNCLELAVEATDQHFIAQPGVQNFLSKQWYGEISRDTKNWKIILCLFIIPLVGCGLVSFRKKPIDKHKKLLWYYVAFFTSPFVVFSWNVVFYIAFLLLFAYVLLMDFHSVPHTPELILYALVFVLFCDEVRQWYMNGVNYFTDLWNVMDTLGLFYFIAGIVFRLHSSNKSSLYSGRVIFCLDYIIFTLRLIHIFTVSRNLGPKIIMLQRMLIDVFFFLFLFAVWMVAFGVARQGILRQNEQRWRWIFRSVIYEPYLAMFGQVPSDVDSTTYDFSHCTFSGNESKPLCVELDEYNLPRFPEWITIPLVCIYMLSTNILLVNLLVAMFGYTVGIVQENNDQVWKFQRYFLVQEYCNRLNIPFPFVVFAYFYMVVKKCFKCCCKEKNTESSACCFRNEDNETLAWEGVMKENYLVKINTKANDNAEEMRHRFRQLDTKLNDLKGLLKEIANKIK

Row | SMILES | TRPA1 Efficacy (% AITC 100 μM) [1] [%] | IC50 [2, 13] [µM] | IC50 [3, 14] [µM] | TRPV2 Efficacy (% Ionomycin 4 μM) [4] [%] | TRPV3 Efficacy (% Ionomycin 4 μM) [5, 15] [%] | IC50 [5, 16] [µM] | IC50 [2, 17] [µM] | IC50 [3, 18] [µM] | also measured
1 | C=C(C)[C@@H]1CCC(C)=C[C@H]1c1c(O)cc(C(C)(C)CCCCCC)cc1O [5a, DMH-CBD] | 133.4 ± 5.3 | > 100 | > 100 | <10 | 15.8 ± 0.4 | > 30 |  |  | 
2 | CCCCCCC(C)(C)c1cc(O)c2c(c1)OC(C)(C)[C@@H]1CC=C(C)C[C@@H]21 [6a, DMH-Δ⁸-THC] | 124.2 ± 4.0 |  |  | <10 | 53.8 ± 1.6 |  | > 100 | > 100 | 
3 | CCCCCCC(C)(C)c1cc(O)c(C/C=C(\C)CCC=C(C)C)c(O)c1 [7a, DMH-CBG] | 99.2 ± 4.5 | > 100 |  | 65.3 ± 0.7 | 64.6 ± 4.8 | > 30 |  |  | 
4 | CCCCCCC(C)(C)c1cc(O)c2c(c1)OC(C)(CCC=C(C)C)C=C2 (centres unmarked) [8a, DMH-CBC] | 120.4 ± 2.8 | > 100 | > 100 | 76.1 ± 0.6 | 41.6 ± 1.8 | > 50 |  |  | IC50 ([1]; read-out: IC50 TRPA1, antagonist/desensitizing, vs AITC 100 μM): 0.37 µM; IC50 [6]: > 100 µM; EC50 ([5]; half-maximal increase in [Ca2+]i; read-out: TRPV3 Potency EC50; cited from earlier work): > 50 µM
5 | CCCCCCC(C)(C)c1cc(O)c2c(c1)OC(C)(C)c1ccc(C)cc1-2 [9a, DMH-CBN] | 132.3 ± 7.9 |  |  | 10.5 ± 0.02 | 20.9 ± 3.0 |  | > 100 | > 100 | IC50 ([4]; read-out: IC50 TRPV2, vs CBD 2 μM): > 50 µM; EC50 ([4]; read-out: TRPV2 Potency EC50, half-maximal increase in [Ca2+]i): 0.25 ± 0.03 µM; EC50 ([5]; read-out: TRPV3 Potency EC50; half-maximal increase in [Ca2+]i; cited from earlier work): 41.4 ± 21.6 µM
6 | CCCCCCC(C)(C)C1=CC2=C(C(=O)C1=O)c1cc(C)ccc1C(C)(C)O2 [9b] |  |  |  |  |  |  |  |  | IC50 ([7]; IC50 TRPA1, antagonist/desensitizing, added 5 min before AITC 100 μM): 15.1 ± 2.4 µM; TRPA1 Efficacy (% AITC 100 μM) ([7]; agonist effect as % of AITC 100 μM, HEK-293 rat TRPA1): 20.5%; IC50 [8]: > 100 µM; IC50 [9]: > 100 µM; IC50 [10]: > 100 µM; TRPV2 Efficacy (% Ionomycin 4 μM) ([11]; agonist effect as % of ionomycin 4 μM): 23.4 ± 3.7%; EC50 ([11]; half-maximal increase in [Ca2+]i, read-out: TRPV2 Potency EC50): 2 ± 1.6 µM; IC50 ([11]; vs CBD 2 μM): 5.2 ± 0.6 µM; TRPV3 Efficacy (% Ionomycin 4 μM) ([12]; agonist effect as % of ionomycin 4 μM, cells sensitized with 2-aminoethoxydiphenyl borate 100 μM): 32.5 ± 0.65%; IC50 ([12]; antagonist/desensitizing, vs Thymol 100 μM): 19.4 ± 3.5 µM; EC50 ([12]; half-maximal increase in [Ca2+]i, read-out: TRPV3 Potency EC50): 1.15 ± 0.15 µM
